Numbers after ± are expanded uncertainties. One block for each molecule: values may come before it.
Details: Liquid, Ebulliometric method (Recirculating still)

vapor or sublimation pressure (357.75 K): 101.3 ± 0.8 kPa
Compound: COCCOC [1,2-dimethoxyethane]

vapor or sublimation pressure (341.88 K): 101.3 ± 0.8 kPa
Compound: CCCCCC [hexane]

vapor or sublimation pressure (344.96 K): 101.3 ± 0.8 kPa
Compound: CC1CCCC1 [methylcyclopentane]

Source: the NIST ThermoML archive (doi:10.1021/acs.jced.7b00802)
